Results on one compound are retold here after patent US20260284080A1 (priority 2025, published 2026).

The data set can be described thus: physchem. It counts as physicochemical. From the text: Abiraterone acetate is a white to off-white, non-hygroscopic, crystalline powder.

Broadly, the pKa is the negative logarithm of the acid dissociation constant. `CC(=O)O[C@H]1CC[C@@]2(C)C(=CC[C@@H]3[C@@H]2CC[C@]2(C)C(c4cccnc4)=CC[C@@H]32)C1` [abiraterone acetate, (3B)-17-(3-pyridinyl) androsta-5,16-dien-3-yl acetate] came in with a pKa of 5.19.
